Square brackets hold non-standard residues; d marks the D form. Peptide text beside a SMILES is read from it. Tyr(3-NO2) = N[C@@H](Cc1ccc(O)c([N+](=O)[O-])c1)C(=O)O
Columns and labels:
Trypsin [1] = target: T1, Trypsin (Sus scrofa, UniProt P00761); assay: Trypsin cleavage of C-terminal quantification tag -SA-nitroTyr-G from peptides, LC-MS with UV detection at 350 nm; assay type: biochemical; conditions: after reduction and alkylation, trypsin enzyme/substrate 1:50 over night at RT
T1 construct: purchased Promega Corporation V511
T1 sequence (P00761 9-231): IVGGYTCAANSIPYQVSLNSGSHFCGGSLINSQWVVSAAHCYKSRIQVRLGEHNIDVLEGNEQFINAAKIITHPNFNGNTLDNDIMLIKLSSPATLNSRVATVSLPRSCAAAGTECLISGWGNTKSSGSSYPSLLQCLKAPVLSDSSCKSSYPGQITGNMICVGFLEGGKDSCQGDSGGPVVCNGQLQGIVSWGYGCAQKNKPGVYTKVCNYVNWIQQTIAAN
Description: 23 peptides carrying the C-terminal quantification-tag-SA-nitroTyr-G-OH (SEQ ID NO:2) were synthesized by Fmoc-based solid phase peptide synthesis and purified by HPLC. Each peptide was subjected to the following trypsin cleavage protocol:
(§1) Trypsin Activation: Trypsin (20 μg, sequencing grade modified trypsin, Promega Corporation, Madison, Wis., USA, catalogue no. V511, specific activity 16.965 u/mg) was dissolved in Trypsin resuspension buffer (200 μL, Promega, catalogue no. V542A, ingredient 50 mM acetic acid) and incubated for 15 min at 37° C.
(§2) Reduction and alkylation: The peptide (approx. 0.05 mg) was dissolved in 1 M urea and 100 mM fresh ammonium hydrogen carbonate (300 μL). TCEP (Tris(2-carboxyethyl) phosphine hydrochloride, 0.2 M, 7.5 μL, final concentration 5 mM) was added and the solution incubated at 37° C. for 1 h. After addition of iodoacetamide (0.5 M, 6.0 μL, final concentration 10 mM) the solution was incubated at RT in the dark for another 30 min. Digestion: The sample was digested with activated Trypsin solution (10 μL per well, 1.0 μg, resulting enzyme/substrate ratio 1:50) over night at RT. To stop the digestion, HCl (2 M, 8 μL final concentration 50 mM) and TFA (3.2 μL, final concentration 1%, pH<2) were added. Finally, the sample was analyzed by LC-MS at 350 nm.

Trypsin [2] = target: T1, Trypsin; assay: Trypsin cleavage of N-terminal quantification tag Ac-nitroTyr-SGK- from peptides, LC-MS with UV detection at 350 nm; assay type: biochemical; conditions: for cleavage efficiency in words: trypsin; for Kusebauch 24 h, RT: Percent Cleavage of Tag [by UV350 - Peptide-Tag vs. Tag]: trypsin protocol of example 9, 24 h
Description: as §1, §2
38 peptides carrying the N-terminal quantification-tag Ac-nitroTyr-SGK-(SEQ ID NO:32) were synthesized by SPOT synthesis (Table 3). The peptide sequences are based on two different amino acid sequences, which in each case contain 19 different amino acids N-terminally attached to lysine (the 20 naturally occurring amino acids except cysteine).
All peptides were subjected to the same trypsin cleavage protocol as described in example 9. It is apparent that the quantification tag is efficiently cleaved (>99%) in nearly all cases.

| SMILES | Percent Cleavage of Tag [by UV at 350 nm] (Trypsin [1]) | cleavage efficiency in words (Trypsin [2]) | Kusebauch 24 h, RT: Percent Cleavage of Tag [by UV350 - Peptide-Tag vs. Tag] (Trypsin [2]) |
| --- | --- | --- | --- |
| CC(C)C[C@H](N)C(=O)N1CCC[C@H]1C(=O)N[C@@H](CC(N)=O)C(=O)NCC(=O)N[C@H](C(=O)N[C@@H](Cc1ccccc1)C(=O)N[C@H](C(=O)N1CCC[C@H]1C(=O)N[C@@H](CC(=O)O)C(=O)N[C@@H](Cc1ccccc1)C(=O)N[C@@H](CCC(N)=O)C(=O)N[C@@H](CCC(=O)O)C(=O)N[C@@H](Cc1ccccc1)C(=O)N[C@H](C(=O)N[C@@H](CC(N)=O)C(=O)N[C@@H](CCCCN)C(=O)N[C@@H](CO)C(=O)N[C@@H](C)C(=O)N[C@@H](Cc1ccc(O)c([N+](=O)[O-])c1)C(=O)NCC(=O)O)C(C)C)[C@@H](C)O)C(C)C [LPNGVFTPDFQEFVN-K-SA-nitroTyr-G] (H-LPNGVFTPDFQEFVNKSA[Tyr(3-NO2)]G-OH) | 95.4% |  |  |
| CC[C@H](C)[C@H](NC(=O)[C@@H](NC(=O)[C@@H](N)CO)C(C)C)C(=O)N[C@@H](CC(=O)O)C(=O)N1CCC[C@H]1C(=O)N[C@H](C(=O)N1CCC[C@H]1C(=O)N[C@@H](C)C(=O)N1CCC[C@H]1C(=O)N[C@H](C(=O)NCC(=O)N[C@@H](CC(=O)O)C(=O)N[C@@H](CO)C(=O)N[C@@H](Cc1c[nH]cn1)C(=O)N[C@H](C(=O)N[C@@H](CC(=O)O)C(=O)NCC(=O)N[C@@H](C)C(=O)N[C@@H](C)C(=O)N[C@@H](CCCCN)C(=O)N[C@@H](CO)C(=O)N[C@@H](C)C(=O)N[C@@H](Cc1ccc(O)c([N+](=O)[O-])c1)C(=O)NCC(=O)O)C(C)C)C(C)C)C(C)C [Peptide 2] (H-SVIDPVPAPVGDSHVDGAAKSA[Tyr(3-NO2)]G-OH) | 100% |  |  |
| CC[C@H](C)[C@H](NC(=O)[C@H](Cc1ccccc1)NC(=O)[C@H](Cc1ccc(O)cc1)NC(=O)[C@H](Cc1c[nH]cn1)NC(=O)[C@@H](NC(=O)[C@H](CC(=O)O)NC(=O)[C@H](CCCCN)NC(=O)CNC(=O)[C@H](CO)NC(=O)[C@H](Cc1ccc(O)c([N+](=O)[O-])c1)NC(C)=O)[C@@H](C)O)C(=O)N[C@@H](CC(=O)O)C(=O)N[C@@H](CC(C)C)C(=O)N[C@@H](CC(N)=O)C(=O)N[C@@H](CCCCN)C(=O)O [Peptide 3, Ac-nitroTyr-SGKDTHYFIDLN-K-OH] (Ac-[Tyr(3-NO2)]SGKDTHYFIDLNK-OH) | 100% | not efficiently cleaved | 60.2% |
| CC[C@H](C)[C@H](NC(=O)[C@H](Cc1ccccc1)NC(=O)[C@H](Cc1ccc(O)cc1)NC(=O)[C@H](Cc1c[nH]cn1)NC(=O)[C@@H](NC(=O)[C@H](CCC(=O)O)NC(=O)[C@H](CCCCN)NC(=O)CNC(=O)[C@H](CO)NC(=O)[C@H](Cc1ccc(O)c([N+](=O)[O-])c1)NC(C)=O)[C@@H](C)O)C(=O)N[C@@H](CC(=O)O)C(=O)N[C@@H](CC(C)C)C(=O)N[C@@H](CC(N)=O)C(=O)N[C@@H](CCCCN)C(=O)O [Peptide 4, Ac-nitroTyr-SGKETHYFIDLN-K-OH] (Ac-[Tyr(3-NO2)]SGKETHYFIDLNK-OH) | 100% |  | 100.0% |
| CC[C@H](C)[C@H](NC(=O)[C@H](Cc1ccccc1)NC(=O)[C@H](Cc1ccc(O)cc1)NC(=O)[C@H](Cc1c[nH]cn1)NC(=O)[C@@H](NC(=O)[C@H](Cc1ccccc1)NC(=O)[C@H](CCCCN)NC(=O)CNC(=O)[C@H](CO)NC(=O)[C@H](Cc1ccc(O)c([N+](=O)[O-])c1)NC(C)=O)[C@@H](C)O)C(=O)N[C@@H](CC(=O)O)C(=O)N[C@@H](CC(C)C)C(=O)N[C@@H](CC(N)=O)C(=O)N[C@@H](CCCCN)C(=O)O [Peptide 5, Ac-nitroTyr-SGKFTHYFIDLN-K-OH] (Ac-[Tyr(3-NO2)]SGKFTHYFIDLNK-OH) | 100% |  | 99.0% |
| CC[C@H](C)[C@H](NC(=O)[C@H](Cc1ccccc1)NC(=O)[C@H](Cc1ccc(O)cc1)NC(=O)[C@H](Cc1c[nH]cn1)NC(=O)[C@@H](NC(=O)CNC(=O)[C@H](CCCCN)NC(=O)CNC(=O)[C@H](CO)NC(=O)[C@H](Cc1ccc(O)c([N+](=O)[O-])c1)NC(C)=O)[C@@H](C)O)C(=O)N[C@@H](CC(=O)O)C(=O)N[C@@H](CC(C)C)C(=O)N[C@@H](CC(N)=O)C(=O)N[C@@H](CCCCN)C(=O)O [Peptide 6, Ac-nitroTyr-SGKGTHYFIDLN-K-OH] (Ac-[Tyr(3-NO2)]SGKGTHYFIDLNK-OH) | 100% |  | 100.0% |
| CC[C@H](C)[C@H](NC(=O)[C@H](Cc1ccccc1)NC(=O)[C@H](Cc1ccc(O)cc1)NC(=O)[C@H](Cc1c[nH]cn1)NC(=O)[C@@H](NC(=O)[C@@H](NC(=O)[C@H](CCCCN)NC(=O)CNC(=O)[C@H](CO)NC(=O)[C@H](Cc1ccc(O)c([N+](=O)[O-])c1)NC(C)=O)[C@@H](C)CC)[C@@H](C)O)C(=O)N[C@@H](CC(=O)O)C(=O)N[C@@H](CC(C)C)C(=O)N[C@@H](CC(N)=O)C(=O)N[C@@H](CCCCN)C(=O)O [Peptide 8, Ac-nitroTyr-SGKITHYFIDLN-K-OH] (Ac-[Tyr(3-NO2)]SGKITHYFIDLNK-OH) | 100% |  | 100.0% |
| CC[C@H](C)[C@H](NC(=O)[C@H](Cc1ccccc1)NC(=O)[C@H](Cc1ccc(O)cc1)NC(=O)[C@H](Cc1c[nH]cn1)NC(=O)[C@@H](NC(=O)[C@H](CCCCN)NC(=O)[C@H](CCCCN)NC(=O)CNC(=O)[C@H](CO)NC(=O)[C@H](Cc1ccc(O)c([N+](=O)[O-])c1)NC(C)=O)[C@@H](C)O)C(=O)N[C@@H](CC(=O)O)C(=O)N[C@@H](CC(C)C)C(=O)N[C@@H](CC(N)=O)C(=O)N[C@@H](CCCCN)C(=O)O [Peptide 9, Ac-nitroTyr-SGKKTHYFIDLN-K-OH] (Ac-[Tyr(3-NO2)]SGKKTHYFIDLNK-OH) | 99.2% | good cleavage efficiencies | 100.0% |
| CC[C@H](C)[C@H](NC(=O)[C@H](Cc1ccccc1)NC(=O)[C@H](Cc1ccc(O)cc1)NC(=O)[C@H](Cc1c[nH]cn1)NC(=O)[C@@H](NC(=O)[C@H](CC(C)C)NC(=O)[C@H](CCCCN)NC(=O)CNC(=O)[C@H](CO)NC(=O)[C@H](Cc1ccc(O)c([N+](=O)[O-])c1)NC(C)=O)[C@@H](C)O)C(=O)N[C@@H](CC(=O)O)C(=O)N[C@@H](CC(C)C)C(=O)N[C@@H](CC(N)=O)C(=O)N[C@@H](CCCCN)C(=O)O [Peptide 10, Ac-nitroTyr-SGKLTHYFIDLN-K-OH] (Ac-[Tyr(3-NO2)]SGKLTHYFIDLNK-OH) | 100% |  | 100.0% |
| CC[C@H](C)[C@H](NC(=O)[C@H](Cc1ccccc1)NC(=O)[C@H](Cc1ccc(O)cc1)NC(=O)[C@H](Cc1c[nH]cn1)NC(=O)[C@@H](NC(=O)[C@H](CCSC)NC(=O)[C@H](CCCCN)NC(=O)CNC(=O)[C@H](CO)NC(=O)[C@H](Cc1ccc(O)c([N+](=O)[O-])c1)NC(C)=O)[C@@H](C)O)C(=O)N[C@@H](CC(=O)O)C(=O)N[C@@H](CC(C)C)C(=O)N[C@@H](CC(N)=O)C(=O)N[C@@H](CCCCN)C(=O)O [Peptide 11, Ac-nitroTyr-SGKMTHYFIDLN-K-OH] (Ac-[Tyr(3-NO2)]SGKMTHYFIDLNK-OH) | 100% |  | 100.0% |
| CC[C@H](C)[C@H](NC(=O)[C@H](CC(C)C)NC(=O)[C@@H](N)CCC(=O)O)C(=O)N[C@@H](Cc1ccccc1)C(=O)N[C@@H](CCC(N)=O)C(=O)N[C@@H](CCC(=O)O)C(=O)N[C@H](C(=O)N[C@@H](C)C(=O)N[C@@H](CCCNC(=N)N)C(=O)N[C@@H](CO)C(=O)N[C@@H](C)C(=O)N[C@@H](Cc1ccc(O)c([N+](=O)[O-])c1)C(=O)NCC(=O)O)[C@@H](C)O [Peptide 22] (H-ELIFQETARSA[Tyr(3-NO2)]G-OH) | 100% |  |  |
| CC(=O)N[C@@H](Cc1ccc(O)c([N+](=O)[O-])c1)C(=O)N[C@@H](CO)C(=O)NCC(=O)N[C@@H](CCCCN)C(=O)N[C@@H](Cc1c[nH]c2ccccc12)C(=O)N[C@H](C(=O)N[C@@H](C)C(=O)N[C@@H](CC(C)C)C(=O)N[C@@H](CO)C(=O)N[C@@H](CC(C)C)C(=O)N[C@@H](CC(=O)O)C(=O)N[C@@H](CC(=O)O)C(=O)N[C@H](C(=O)N[C@@H](CCCCN)C(=O)O)C(C)C)C(C)C [Peptide 39, Ac-nitroTyr-SGKWVALSLDDV-K-OH] (Ac-[Tyr(3-NO2)]SGKWVALSLDDVK-OH) |  |  | 100.0% |
| CC(=O)N[C@@H](Cc1ccc(O)c([N+](=O)[O-])c1)C(=O)N[C@@H](CO)C(=O)NCC(=O)N[C@@H](CCCCN)C(=O)N[C@@H](Cc1ccc(O)cc1)C(=O)N[C@H](C(=O)N[C@@H](C)C(=O)N[C@@H](CC(C)C)C(=O)N[C@@H](CO)C(=O)N[C@@H](CC(C)C)C(=O)N[C@@H](CC(=O)O)C(=O)N[C@@H](CC(=O)O)C(=O)N[C@H](C(=O)N[C@@H](CCCCN)C(=O)O)C(C)C)C(C)C [Peptide 40, Ac-nitroTyr-SGKYVALSLDDV-K-OH] (Ac-[Tyr(3-NO2)]SGKYVALSLDDVK-OH) |  |  | 99.1% |
